Columns and labels:
[1] = tested on: E. coli ATCC 10536; assay: BCT test (bacterial contact time), 45 s, log reduction / effect fraction; CI by Compusyn; format: cell-based, Escherichia coli; conditions: Escherichia coli, ATCC10536, 45 s
Procedure, shortened: (§1)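 Log-phase cultures (OD600 1-2) were resuspended in TSB at about 1×10^8 bacteria/mL and mixed 1:1 with ethanolic perfume combinations or single ingredients, five replicates each. After the stated contact time, serial dilutions were grown at 37° C and viable counts derived from OD600 turbidity; log reduction is versus ethanol control.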

[2] = tested on: S. aureus ATCC 6538; assay: BCT test (bacterial contact time), 60 s, log reduction / effect fraction; CI by Compusyn; format: cell-based, Staphylococcus aureus; conditions: Staphylococcus aureus, ATCC6538, 1 min, 60 s, in 25% EtOH; for log reduction at 0.075 % strength: dose 0.075 % w/v; for log reduction at 0.1 % strength: dose 0.100 % w/v; for log reduction at 0.125 % strength: dose 0.125 % w/v; for log reduction at 0.15 % strength: dose 0.150 % w/v, read-out: Log reduction; for log reduction at 0.05 % strength: dose 0.050 % w/v
Procedure, shortened: as §1

[3] = tested on: Salmonella enterica ATCC 10708; assay: as above; format: cell-based; conditions: Salmonella enterica, ATCC10708, 1 min, BCT 60 s, in 25% EtOH; for log reduction at 0.04 % strength: Dose 0.04 % w/v; for log reduction at 0.05 % strength: Dose 0.05 % w/v, read-out: Log reduction; for log reduction at 0.06 % strength: Dose 0.06 % w/v
Procedure, shortened: as §1

[4] = tested on: Pseudomonas aeruginosa ATCC 15442; assay: as above; format: cell-based; conditions: Pseudomonas aeruginosa, ATCC15442, 1 min, BCT 60 s, in 25% EtOH; for log reduction at 0.05 % strength: Dose 0.05 % w/v; for log reduction at 0.1 % strength: Dose 0.1 % w/v; for log reduction at 0.06 % strength: Dose 0.06 % w/v; for log reduction at 0.07 % strength: Dose 0.07 % w/v; for log reduction at 0.08 % strength: Dose 0.08 % w/v
Procedure, shortened: as §1

[5] = tested on: S. haemolyticus 114126; assay: BCT test (bacterial contact time), 120 s, log reduction / effect fraction; CI by Compusyn; format: cell-based; conditions: Staphylococcus haemolyticus, 114126, 2 min, contact 120 s, 25% EtOH; for log reduction at 0.1 % strength: dose 0.1% w/v; for log reduction at 0.125 % strength: dose 0.125% w/v; for log reduction at 0.15 % strength: dose 0.15% w/v; for log reduction at 0.175 % strength: dose 0.175% w/v, read-out: Log reduction; for log reduction at 0.2 % strength: dose 0.2% w/v
Procedure, shortened: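 S. haemolyticus 114126 (skin isolate), grown to OD600 1-2 in BHI-TW80 and resuspended at 1-5×10^8 CFU/mL, was mixed 1:1 with ethanolic perfume compositions or ethanol alone for 45, 60 or 120 s. Viable counts came from serial-dilution regrowth (37 °C, turbidity OD600), giving log reduction versus ethanol control; CI was computed from concentration–effect fraction pairs.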

[6] = dose 0.05% w/v, contact 45 s, 20% EtOH
[7] = dose 0.07% w/v, contact 45 s, 20% EtOH
[8] = dose 0.08% w/v, contact 45 s, 20% EtOH
[9] = dose 0.09% w/v, contact 45 s, 20% EtOH

Structure (SMILES) | log reduction at 0.05 % strength [1, 6] | log reduction at 0.07 % strength [1, 7] | log reduction at 0.08 % strength [1, 8] | log reduction at 0.09 % strength [1, 9] | log reduction at 0.075 % strength [2] | log reduction at 0.1 % strength [2] | log reduction at 0.125 % strength [2] | log reduction at 0.15 % strength [2] | log reduction at 0.04 % strength [3] | log reduction at 0.05 % strength [3] | log reduction at 0.06 % strength [3] | log reduction at 0.05 % strength [4] | log reduction at 0.1 % strength [4] | log reduction at 0.1 % strength [5] | log reduction at 0.125 % strength [5] | log reduction at 0.15 % strength [5] | log reduction at 0.175 % strength [5] | log reduction at 0.05 % strength [2] | log reduction at 0.06 % strength [4] | log reduction at 0.07 % strength [4] | also measured
CC(C)=CCC/C(C)=C\CO [Nerol, (Z)-3,7-dimethyl-2,6-octadien-1-ol] | 0.1 | 7 | 7.4 | 7.4 | 3.2 | 7 | 7.3 | 7.5 | 2.2 | 5.6 | 7.3 | 3.6 | 7.4 | 1.4 | 4 | 6.2 | 7.4 | – | – | – | log reduction at 0.05 % strength ([1]; dose 0.050 % w/v, 45 s, in 20% EtOH): 1.1; log reduction at 0.06 % strength ([1]; dose 0.060 % w/v, 45 s, in 20% EtOH): 3.2; log reduction at 0.06 % strength ([1]; dose 0.06% w/v, contact 45 s, 20% EtOH): 3.2; log reduction at 0.07 % strength ([1]; dose 0.070 % w/v, 45 s, in 20% EtOH): 6.7; log reduction at 0.08 % strength ([1]; dose 0.080 % w/v, 45 s, in 20% EtOH): 7.3; log reduction at 0.09 % strength ([1]; dose 0.090 % w/v, 45 s, in 20% EtOH): 7.3; log reduction at 0.0625 % strength ([2]; dose 0.0625 % w/v): 1.3; log reduction at 0.01 % strength ([3]; Dose 0.01 % w/v): 0; log reduction at 0.03 % strength ([3]; Dose 0.03 % w/v): 0.7; log reduction at 0.025 % strength ([4]; Dose 0.025 % w/v): 0.4; log reduction at 0.0625 % strength ([4]; Dose 0.0625 % w/v): 5.6; log reduction at 0.075 % strength ([4]; Dose 0.075 % w/v): 7.4; log reduction at 0.05 % strength ([5]; dose 0.05% w/v): 0.1
C=C(C)[C@@H]1CC=C(CO)CC1 [Perycorolle, (S)-(−)-(4-Isopropenyl-1-cyclohexenyl)methanol] | 0 | 1.2 | 3.7 | 6 | 1.6 | 5.1 | 7.3 | 7.3 | 0 | 0.3 | 0.9 | 1.8 | 7.5 | -0.2 | 0.4 | 1.9 | 6.4 | 0.2 | 3.7 | 5.1 | log reduction at 0.1 % strength ([1]; dose 0.1% w/v, contact 45 s, 20% EtOH, read-out: Log reduction): 7.4; log reduction at 0.07 % strength ([3]; Dose 0.07 % w/v): 2.2; log reduction at 0.08 % strength ([3]; Dose 0.080 % w/v): 5.2; log reduction at 0.08 % strength [4]: 7.1; log reduction at 0.2 % strength [5]: 7.2
CC(CCO)CCc1ccccc1 (stereo not drawn) [Phenylhexanol, 3-methyl-5-phenyl-1-pentanol] | 7.2 | – | – | – | – | – | – | – | – | – | – | 3.7 | – | 1.2 | 3.9 | 6.1 | 6.9 | 1 | 5.3 | 7.1 | log reduction at 0.02 % strength ([1]; dose 0.02% w/v, contact 45 s, 20% EtOH): 0; log reduction at 0.03 % strength ([1]; dose 0.03% w/v, contact 45 s, 20% EtOH): 0; log reduction at 0.035 % strength ([1]; dose 0.035% w/v, contact 45 s, 20% EtOH): 1.1; log reduction at 0.04 % strength ([1]; dose 0.04% w/v, contact 45 s, 20% EtOH): 2.4; log reduction at 0.06 % strength ([2]; dose 0.060 % w/v): 3.3; log reduction at 0.07 % strength ([2]; dose 0.070 % w/v): 6.7; log reduction at 0.08 % strength ([2]; dose 0.080 % w/v): 7; log reduction at 0.09 % strength ([2]; dose 0.090 % w/v): 7.5; log reduction at 0.045 % strength ([3]; Dose 0.045 % w/v): 7.9; log reduction at 0.08 % strength [4]: 7.5; log reduction at 0.2 % strength [5]: 7.3

— patent publication US12419305B2, “Antimicrobial compositions” (Firmenich SA, priority 2018, dated 2025)
